Source: US10240154B2, “RNA products and uses thereof” (IFOM Fondazione Istituto FIRC di Oncologia Molecolare, priority 2012, dated 2019)

What was measured:
RNA polymerase II [1] = biological target: T1, RNA polymerase II (Homo sapiens, UniProt P24928); experiment: Spontaneous 53BP1 foci reformation after RNase A treatment in irradiated HeLa cells; assay type: cell-based; settings: irradiated (2Gy) HeLa, RNase A then RNaseOUT, with α-amanitin for 10 or 45 minutes
T1 construct: endogenous in cells; host or cells: HeLa
Procedure: Cells were plated on poly-D-lysinated coverslips and irradiated with 2Gy of IR. 1 h after HeLa cells were permeabilized with 2% Tween 20 in PBS for 10 minutes at RT while I-Sce I-transfected NIH2/4 cells were permeabilized in 0.5% Tween 20 in PBS for 10 minutes at RT. RNase A treatment was carried out in 1 ml of 1 mg/ml Ribonuclease A from bovine pancreas (Sigma-Aldrich cat n: R5503) in PBS for 25 minutes at room temperature. […] […] Then, RNase A-treated cells were incubated with total, small or gel extracted RNA, or the same amount of tRNA, for additional 15 minutes at room temperature. […] Cell were then fixed with 4% paraformaldehyde or methanol:acetone 1:1.

RNA polymerase II [2] = biological target: T2, RNA polymerase II (Mus musculus, UniProt P08775); experiment: 53BP1 focus reformation at the I-Sce I-induced DSB in RNase A-treated NIH2/4 cells; assay type: cell-based; settings: data not shown
T2 construct: endogenous in cells; host or cells: NIH2/4 mouse cells
Procedure: (§1) Cells were plated on poly-D-lysinated coverslips and irradiated with 2Gy of IR. 1 h after HeLa cells were permeabilized with 2% Tween 20 in PBS for 10 minutes at RT while I-Sce I-transfected NIH2/4 cells were permeabilized in 0.5% Tween 20 in PBS for 10 minutes at RT. RNase A treatment was carried out in 1 ml of 1 mg/ml Ribonuclease A from bovine pancreas (Sigma-Aldrich cat n: R5503) in PBS for 25 minutes at room temperature. After RNase A digestion, the samples were washed with PBS, treated with 80 units of RNase inhibitor (RNaseOUT Invitrogen 40 units/μl) and 2 μg/ml of α-amanitin (SIGMA) for 15 minutes in a total volume of 70 μl. […] Then, RNase A-treated cells were incubated with total, small or gel extracted RNA, or the same amount of tRNA, for additional 15 minutes at room temperature. […] Cell were then fixed with 4% paraformaldehyde or methanol:acetone 1:1.

NIH2/4 cells [3] = experiment: Short RNA sequencing of NIH2/4 cells after Dicer or Drosha knockdown by shRNA; assay type: cell-based, mouse; settings: for miRNA expression (spike-normalized reads mapping to miRBase): NIH2/4, cut and uncut, compared to wildtype; for fraction of 22-23 nt vs total short RNAs at the locus: NIH2/4, uncut and cut conditions
Procedure: Nuclei were isolated the day after the adenoviral infection.
Nuclear RNA shorter than 200 nt was purified using mirVana™ microRNA Isolation Kit. RNA quality was checked on a small RNA chip (Agilent) before library preparation (Supplementary FIG. 23a). For Illumina hi Seq Version3 sequencing, spike RNA was added to each RNA sample in the RNA:spike ratio of 10,000:1 before library preparation and libraries for Illumina GA IIX were prepared without spike. An improved short RNA library preparation protocol was used to prepare libraries^68. In brief, adenylated 3′ adapters were ligated to 3′ ends of 3′-OH short RNAs using a truncated RNA ligase enzyme followed by 5′ adapter ligation to 5′-monophosphate ends using RNA ligase enzyme, ensuring specific ligation of undegraded short RNAs. cDNA was prepared using a primer specific to the 3′ adapter in the presence of Dimer eliminator and amplified for 12-15 PCR cycles using a special forward primer targeting the 5′ adapter containing additional sequence for sequencing and a reverse primer targeting the 3′ adapter. The amplified cDNA library was run on a 6% polyacrylamide gel and the 100 bp band containing cDNAs up to 33 nt was extracted using standard extraction protocols. Libraries were sequenced after quality check on a DNA high sensitivity chip (Agilent). Multiplexed barcode sequencing was performed on Illumina GA-IIX (35 bp Single end reads) and Illumina Hi seq version3 (51 bp single end reads). Sequences of all the DDRNAs identified in this study will be available for free downloading by the time of publication at short read archive.
Statistical significance of downregulation of normalized miRNAs in Dicer and Drosha knockdown samples were calculated using the Wilcoxon signed-rank test.
The differences in the fraction of 22-23 nt vs total short RNAs at the locus between the wildtype, Dicer knockdown, and Drosha knockdown before and after cut was calculated by fitting a negative binomial model to the sRNA count data and performing a likelihood ratio test, keeping the fraction of 22-23 nt vs total short RNAs at the locus fixed across conditions under the null hypothesis and allowing it to vary between conditions under the alternative hypothesis.

[4] = test system: DDRNAs with telomeric sequence; experiment: LNA transfection, 53BP1 foci after telomere uncapping in T19 fibrosarcoma cells; assay type: cell-based, human
Procedure: (§2) (for the experiments in FIGS. 35-36). T19 fibrosarcoma cells (van Steensel, Cell 1998) were grown in DMEM supplemented with 10% fetal bovine serum, 1% glutamine and doxycycline (100 ng/ml). For induction, cells were grown without doxycycline for at least 7-8 days. CRE-ER TRF2^flox/flow MEFs (Lazzerini Denchi and de Lange, Nature 2007) were grown in DMEM supplemented with 10% fetal bovine serum and 1% glutamine. For induction, cells were grown in presence of 4-hydroxytamoxifen (600 nM) for 48 hours. For BrdU incorporation, cells were labeled with 10 μg/ml bromodeoxyuridine (BrdU, Sigma) for 16 hours and incorporation was evaluated by immunofluorescence after DNA denaturation.
(§3) (for the experiments in FIGS. 35-36). Cells were fixed with 1:1 methanol/acetone solution for 2 minutes at room temperature, or 4% paraformaldehyde for 10 minutes at room temperature. After blocking, cells were stained with primary antibodies for 1 h at room temperature, washed and incubated with conjugated secondary antibodies for 40 minutes at RT. Nuclei were stained with DAPI (1 μg/ml).
(§4) (for the experiments in FIG. 36). LNA were first boiled at 90° C. for 5 minutes, chilled at 4° C. for 5 minutes and transfected with Lipofectamine RNAiMAX (Invitrogen) at the final concentration of 200 nM.

[5] = test system: DDRNAs with telomeric sequence; experiment: LNA transfection, BrdU incorporation after telomere uncapping in T19 fibrosarcoma cells; assay type: cell-based, human; settings: LNA 200 nM, 3 days following LNA transfection
Procedure: as §2, §4

HeLa cells [6] = experiment: DDR foci formation in the RNase A in vitro cell system with translation inhibitor; assay type: cell-based, human; settings: data not shown
Procedure: as §1

HEK293 cells = experiment: G2/M checkpoint assay in HEK293 cells after shRNA knockdown; assay type: cell-based, human; settings: HEK293, 12, 24 and 36 hours post irradiation (5Gy)
Procedure: HEK 293 calcium phosphate transfected cells were irradiated with 5Gy and allowed to respond to IR-induced DNA damage in a cell culture incubator for 12, 24 or 36 hours. Then, at these three time points post irradiation, together with not irradiated cells, 1×10^6 cells were collected for Fluorescence Activated Cell Sorting (FACS) analysis, fixed in 75% ethanol in PBS, 30 minutes on ice. Afterwards, cells were treated 12 hours with 40 μg/ml of RNase A and incubated at least 1 h with propidium iodide (PI). FACS profiles were obtained by the analysis of at least 5×10^5 cells. In the complementation experiments HEK 293 were transfected using Lipofectamine RNAi Max (Invitrogen) and 48 hours later irradiated with 5Gy. Cells were then treated as explained above.

Dicer = settings: RNA with aptamer-binding site for paromomycin; according to the amount of ligand; cited from earlier work
TRF2^flox/flox MEFs = experiment: RNase A treatment of TRF2 knockout MEFs with uncapped telomeres; assay type: cell-based, mouse; settings: RNase A vs BSA
Procedure: as §2, §3
(for the experiments in FIG. 35). CRE-ER TRF2^flox/flox MEFs (Lazzerini Denchi and de Lange, Nature 2007) were induced to generate TRF2 knockout and telomere uncapping. 48 hours later cells were permeabilized with 0.6% Tween 20 in PBS for 15 min at room temperature.

HeLa cells [7] = experiment: RNase A treatment of irradiated permeabilized HeLa cells, DDR foci; assay type: cell-based, human; settings: irradiated HeLa cells (2Gy), RNase A 1 mg/ml
Procedure: as §1

NIH2/4 cells [8] = experiment: RNase A treatment of I-Sce I cut NIH2/4 cells, foci colocalizing with Cherry-Lac; assay type: cell-based, mouse
Procedure: as §1

[9] = induced (Flag+) T19 cells, LNA 200 nM transfected at day 13 from induction, compared to control LNA
[10] = uninduced (Flag−) T19 cells, LNA 200 nM
[11] = Flag+ T19 cells, BrdU 16 hours, compared to Cntrl LNA

α-amanitin
53BP1-foci reformation (RNA polymerase II [1]): prevents 53BP1-foci reformation
53BP1 focus reformation at the I-Sce I-induced DSB (RNA polymerase II [2]): prevents 53BP1 focus reformation

shDicer: shRNA for mouse Dicer, SEQ ID NO:3, lentiviral pLKO.1 (CCGGGCCTCACTTGACCTGAAGTATCTCGAGATACTTCAGGTCAAGTGAGGCTTTTT)
miRNA expression (spike-normalized reads mapping to miRBase) (NIH2/4 cells [3]): significantly lower expressed
fraction of 22-23 nt vs total short RNAs at the locus (NIH2/4 cells [3]): decreases

LNA 5: LNA, SEQ ID NO: 61, CCCTAACCCTAACCCTAACCC; antisense telomeric sequence; control in FIG. 34
53BP1 foci-positive cells [4, 9]: decrease in DDR-positive cells
53BP1 foci-positive cells [4, 10]: no difference was observed
percentage of BrdU-positive cells [5, 11]: significant increase
percentage of BrdU-positive cells ([5]; Flag− T19 cells): no difference is observed

shDrosha: shRNA for mouse Drosha, SEQ ID NO:4, lentiviral pLKO.1 (CCGGCCTGGAATATGTCCACACTTTCTCGAGAAAGTGTGGACATATTCCAGGTTTTTG)
miRNA expression (spike-normalized reads mapping to miRBase) (NIH2/4 cells [3]): significantly lower expressed
fraction of 22-23 nt vs total short RNAs at the locus (NIH2/4 cells [3]): decreases

LNA 3: LNA, SEQ ID NO: 59, ACTGATAGGGAGTGGTAAACT; unrelated control in FIG. 36 (LNA-modified oligonucleotide, LNA positions not given here)
53BP1 foci-positive cells [4, 9]: no effect

C[C@@H]1C[C@@H]([C@H](O)CC2CC(=O)NC(=O)C2)C(=O)[C@@H](C)C1 [cyclohexamide]
DDR foci formation (HeLa cells [6]): no impact on DDR foci formation

shRNA against p53: pRETROSUPER shp53, short hairpin SEQ ID NO:2 (guide AGTAGATTACCACTGGAGTCTT)
G2/M checkpoint (FACS cell-cycle profile) (HEK293 cells): did not arrest upon DNA damage

LNA 6: LNA, SEQ ID NO: 62, GGGTTAGGGTTAGGGTTAGGG; sense telomeric sequence (LNA)
53BP1 foci-positive cells [4, 9]: decrease in DDR-positive cells
53BP1 foci-positive cells [4, 10]: no difference was observed
percentage of BrdU-positive cells [5, 11]: significant increase
percentage of BrdU-positive cells ([5]; Flag− T19 cells): no difference is observed

NC[C@@H]1O[C@H](O[C@H]2[C@@H](O)[C@H](O[C@@H]3[C@@H](O)[C@H](N)C[C@H](N)[C@H]3O[C@H]3O[C@H](CO)[C@@H](O)[C@H](O)[C@H]3N)O[C@@H]2CO)[C@H](N)[C@@H](O)[C@@H]1O [paromomycin]
Dicer activity (Dicer): decrease of Dicer activity

B1: RNase A: Ribonuclease A from bovine pancreas (Sigma-Aldrich R5503), broad-specificity RNA nuclease (protein, UniProt P61823 27-150, looked up)
Ribonuclease pancreatic: KETAAAKFERQHMDSSTSAASSSNYCNQMMKSRNLTKDRCKPVNTFVHESLADVQAVCSQKNVACKNGQTNCYQSYSTMSITDCRETGSSKYPNCAYKTTQANKHIIVACEGNPYVPVHFDASV
53BP1 foci (TRF2^flox/flox MEFs): disassemble
γH2AX foci (TRF2^flox/flox MEFs): stable
53BP1, pATM, pS/TQ and MDC1 foci (HeLa cells [7]): strongly reduced
γH2AX accumulation (HeLa cells [7]): only slightly affected
53BP1, pATM and MRE11 foci colocalizing with the Cherry-Lac focus (NIH2/4 cells [8]): lost
